# Assay: Mannequin head curl retention expert evaluation (air dried hair)
# Settings: through 20 washes
# Text: Mannequin Head Odor and Curl Expert Evaluation
# Control perm: Omniperm™ with ammonium thioglycolate, available from Zotos Professional®, including both the reducing and oxidizing steps.
# Curl Retention Assessments:
# Treatment and expert sensory performed by licensed cosmetologist with 20+ years expertise in perms. All evaluations shown in graphs were done with hair in dry state, after air drying. Photos are available for most time points as well.
smiles,measurement,value
C[n+]1cccc(NCCS)c1.[I-] [3-((2-mercaptoethyl)amino)-1-methylpyridin-1-ium iodide],Curl retention compared with benchmark control perm,equal curl retention

# From patent US12398104B2, “Odorless thiols for permanent waving, straightening and depilatory applications” (The Procter & Gamble Company, priority 2017, dated 2025)
